Patent US10905738B2, “Synthetic peptides, prodrugs, pharmaceutical compositions and uses” (Biozeus Desenvolvimento De Produtos Biofarmacêuticos, priority 2018, dated 2021)
Where a SMILES comes first, the peptide text is derived from it.

Columns and labels:
[1] = system: smooth muscle of pulmonary arteries; assay: relaxation of pulmonary arteries contracted with phenylephrine ex vivo; design: species or system male Wistar rats; conditions: n = 9; for pEC50: pulmonary arteries contracted with phenylephrine, peptides 1 nM-10 μM, mean±SEM; for Effectiveness (Emax) (%): relaxation percentage related to maximum phenylephrine contraction
Text: The ex vivo model of pulmonary artery smooth muscle contraction with phenylephrine is very useful to screen candidate compounds for lung diseases that demand vasodilating effects (ALENCAR, A. K., PEREIRA, S. L., MONTAGNOLI, T. L., MAIA, R. C., KUMMERLE, A. E., LANDGRAF, S. S., CARUSO-NEVES, C., FERRAZ, E. B., TESCH, R., NASCIMENTO, J. H., DE SANT'ANNA, C. M., FRAGA, C. A., BARREIRO, E. J., SUDO, R. T., ZAPATA-SUDO, G. Beneficial effects of a novel agonist of the adenosine A2A receptor on monocrotaline-induced pulmonary hypertension in rats. Br J Pharmacol, 169: 953-62. 2013).
Rats were anesthetized with midazolam and ketamine (2 mg/kg and 100 mg/kg, respectively) via intraperitoneal administration. After infusion of a lethal dose of sodium thiopental via intraperitoneal administration (50 mg/kg), the trunk of the pulmonary artery was carefully removed via sternotomy. The pulmonary artery was carefully dissected and the connective tissue removed. The arteries were connected to a force transductor, positioned in vertical chambers filled with Krebs solution, oxygenated and kept at 37° C.
After a stabilization period of 2 hours at a tension of 1.5 grams, the arteries were exposed to increasing doses of phenylephrine (1 nM-10 μM) in order to obtain maximum smooth muscle contraction and then exposed to increasing doses of selected peptides in the concentrations of 1 nM-10 μM each (n=9). The tension generated by the pulmonary artery was evaluated at intervals of 5 minutes for each dose (ALENCAR, A. K., PEREIRA, S. L., MONTAGNOLI, T. L., MAIA, R. C., KUMMERLE, A. E., LANDGRAF, S. S., CARUSO-NEVES, C., FERRAZ, E. B., TESCH, R., NASCIMENTO, J. H., DE SANT'ANNA, C. M., FRAGA, C. A., BARREIRO, E. J., SUDO, R. T., ZAPATA-SUDO, G. Beneficial effects of a novel agonist of the adenosine A2A receptor on monocrotaline-induced pulmonary hypertension in rats. Br J Pharmacol 169: 953-62. 2013; ALENCAR, A. K., PEREIRA, S. L., DA SILVA, F. E., MENDES, L. V., CUNHA VDO, M., LIMA, L. M., MONTAGNOLI, T. L., CARUSO-NEVES, C., FERRAZ, E. B., TESCH, R., NASCIMENTO, J. H., SANT'ANNA, C. M., FRAGA, C. A., BARREIRO, E. J., SUDO, R. T., ZAPATA-SUDO, G. N-acylhydrazone derivative ameliorates monocrotaline-induced pulmonary hypertension through the modulation of adenosine AA2R activity. International Journal of Cardiology, 173(2): 154-62. 2014).
Potency values are shown as the negative logarithm of the concentration that reduced the voltage to 50% of the maximum phenylephrine-induced contraction (pEC50), and they are expressed as mean±SEM. The maximum contraction achieved in a given artery was considered to be 100% of contraction, and the effectiveness (Emax) was expressed as the relaxation percentage related to this maximum value. The results were calculated from at least 3 independent tests using the sigmoid non-linear regression equation, and the statistical analysis of the concentration curve was done by performing a nonlinear fit of the logarithmic of the agonist versus response. All the above calculations were performed on the software Graph Prism 5.0 (GraphPad Software, La Jolla, Calif., USA). Tension analysis was performed on the software LabChart7 (AD Instruments, Sydney, Australia). As a cutoff to determine biological significance, we considered pulmonary artery relaxation values above 30% as biologically relevant, considered those as active and then calculated the Emax values (SUN, C. K., LIN, Y. C., YUEN, C. M., CHUA, S., CHANG, L. T., SHEU, J. J., LEE, F. Y., FU, M., LEU, S., YIP, H. K. Enhanced protection against pulmonary hypertension with sildenafil and endothelial progenitor cell in rats. International journal of cardiology, 162(1): 45-58. 2012; ALENCAR, A. K., PEREIRA, S. L., DA SILVA, F. E., MENDES, L. V., CUNHA VDO, M., LIMA, L. M., MONTAGNOLI, T. L., CARUSO-NEVES, C., FERRAZ, E. B., TESCH, R., NASCIMENTO, J. H., SANT'ANNA, C. M., FRAGA, C. […]

[2] = system: house dust mite (HDM) sensitized A/J mice; assay type: in vivo, Male A/J mice; conditions: 10 nMol and 30 nMol per animal, 6 h after intratracheal instillation
Experimental: Male A/J mice (18-20 g), were sensitized by house dust mite (HDM) to established acute allergic asthma according to the protocol of Haspelagh et al (HASPESLAGH, E., DEBEUF, N., HAMMAD, H., LAMBRECHT, B. N. Murine Models of Allergic Asthma. Methods Mol Biol, 1559:121-136. 2017). Inflammatory cell infiltrations in the bronchoalveolar lavage fluid (BALF) were analyzed by flow cytometry.
The mice (n=5 per group) were treated with vehicle (PBS), SEQ ID NO: 19, SEQ ID NO: 24 or PnTx(19), at doses of 10 nMol and 30 nMol per animal, by intratracheal instillation, and material were collected 6 hours post-challenge.

SMILES | pEC50 [1] | Effectiveness (Emax) (%) [1] | neutrophil accumulation in the bronchoalveolar space [2]
CC[C@H](C)[C@H](NC(=O)[C@H](Cc1c[nH]c2ccccc12)NC(=O)[C@H](Cc1ccccc1)NC(C)=O)C(=O)N[C@@H](C)C(=O)N[C@@H](Cc1c[nH]c2ccccc12)C(=O)N[C@@H](Cc1ccc(O)cc1)C(=O)N[C@@H](CCCCN)C(=O)N[C@@H](CC(C)C)C(=O)N[C@@H](C)C(N)=O [SEQ ID NO: 19, Ac-Phe-Trp-Ile-Ala-Trp-Tyr-Lys-Leu-Ala-NH2] (Ac-FWIAWYKLA-NH2) | 6.9 ± 6.55 | 24% ± 9.71 | did not induce neutrophil accumulation
CC[C@H](C)[C@H](NC(C)=O)C(=O)N[C@@H](C)C(=O)N[C@@H](Cc1c[nH]c2ccccc12)C(=O)N[C@@H](Cc1ccc(O)cc1)C(=O)N[C@@H](CCCCN)C(N)=O [SEQ ID NO: 24, Ac-Ile-Ala-Trp-Tyr-Lys-NH2] (Ac-IAWYK-NH2) | 4.4 ± 6.4 | 5% ± 5.96 | did not induce neutrophil accumulation
